According to patent publication US9920030B2 (priority 2006, dated 2018):
Like-named read-outs stand apart in the source and are kept apart here.

Assays:
Type in all cases: in vivo
[1] = tested on: Plasmopara vilicola (the causal agent of grape downy mildew); assay: Test A: grape downy mildew, test suspension sprayed on grape seedlings after inoculation, visual disease rating
From the text: General protocol for preparing test suspensions for Test A-C: The test compounds were first dissolved in acetone in an amount equal to 3% of the final volume and then suspended at the desired concentration (in ppm) in acetone and purified water (50/50 mix by volume) containing 250 ppm of the surfactant Trem® 014 (polyhydric alcohol esters). The resulting test suspensions were then used in Tests A-C. Spraying a 200 ppm test suspension to the point of run-off on the test plants was equivalent to a rate of 500 g/ha.
Grape seedlings were inoculated with a spore suspension of Plasmopara vilicola (the causal agent of grape downy mildew) and incubated in a saturated atmosphere at 20° C. for 24 h. After a short drying period, the test suspension was sprayed to the point of run-off on the grape seedlings, which were then moved to a growth chamber at 20° C. for 5 days, after which time the grape seedling were placed back into a saturated atmosphere at 20° C. for 24 h. Upon removal, visual disease ratings were made.
Results for Tests A-C are given in Table A. In the table, a rating of 100 indicates 100% disease control and a rating of 0 indicates no disease control (relative to the controls). A dash (-) indicates no test results.

[2] = tested on: Phytophthora infestans (the causal agent of tomato late blight); assay: whole plant or invertebrate
[3] = tested on: Phytophthora infestans (the causal agent of tomato late blight); assay: whole plant or invertebrate; remark: listed apart in the source
[4] = compounds without asterisk (application rate not given), 100 = 100% disease control, 0 = no control relative to the controls

Row | Compound | Percent Disease Control, Test A [1, 4] | Percent Disease Control, Test C [2, 4] | Percent Disease Control, Test B [3, 4] | also measured
1 | Cc1cc(C(F)(F)F)nn1CC(=O)N1CCC(c2nc(C3=NOC(C)(c4ccccc4)CC3)cs2)CC1 (stereo not drawn) [Compound 29] | 99% | 99% | 100% | –
2 | Cc1cc(C(F)(F)F)nn1CC(=O)N1CCC(c2nc(-c3cc(-c4ccccc4)no3)cs2)CC1 [Compound 30] | – | – | – | Percent Disease Control, Test A ([1]; ** tested at l0 ppm): 31%; Percent Disease Control, Test C ([2]; ** tested at l0 ppm): 50%; Percent Disease Control, Test B ([3]; ** tested at l0 ppm): 57%
3 | Cc1cc(C(F)(F)F)nn1CC(=O)N1CCC(c2nc(C3=NC(c4ccccc4)CO3)cs2)CC1 (stereo not drawn) [Compound 31] | – | – | – | Percent Disease Control, Test A ([1]; ** tested at l0 ppm): 84%; Percent Disease Control, Test C ([2]; ** tested at l0 ppm): 60%; Percent Disease Control, Test B ([3]; ** tested at l0 ppm): 83%
4 | Cc1cc(C(F)(F)F)nn1CC(=O)N1CCC(c2nc(C3=NCCN3Cc3ccccc3)cs2)CC1 [Compound 32] | 0% | 0% | 26% | –
5 | Cc1cc(C(F)(F)F)nn1CC(=O)N1CCC(n2cc(-c3cccc(-c4ccccc4)c3)cn2)CC1 [Compound 33] | 15% | 0% | 9% | –
6 | Cc1cc(C(F)(F)F)nn1CC(=O)N1CCC(n2cc(-c3cccc(-c4ccccc4)n3)cn2)CC1 [Compound 34] | 0% | 0% | 40% | –
7 | Cc1cc(C(F)(F)F)nn1CC(=O)N1CCC(c2nc(C3=NOC4(CCCc5ccccc54)C3)cs2)CC1 (stereo not drawn) [Compound 37, 1-[4-[4-(3′,4′-dihydrospiro[isoxazole-5(4H), 1′,(2′H)-naphthalen]-3-yl)-2-thiazolyl]-1-piperidinyl]-2-[5-methyl-3-(trifluoromethyl)-1H-pyrazol-1-yl]ethanone] | – | – | – | Percent Disease Control, Test A ([1]; * tested at 40 ppm): 100%; Percent Disease Control, Test C ([2]; * tested at 40 ppm): 99%; Percent Disease Control, Test B ([3]; * tested at 40 ppm): 100%
8 | Cc1cc(C(F)(F)F)nn1CC(=O)N1CCC(c2nc(C3=NOC(c4cc(Cl)cc(Cl)c4)(C(F)(F)F)C3)cs2)CC1 (stereo not drawn) [Compound 39] | 8% | 0% | 67% | –
9 | Cc1cc(C(F)(F)F)nn1CC(=O)N1CCC(c2nc(-c3nnc(-c4ccccc4)o3)cs2)CC1 [Compound 40] | 47% | 99% | 100% | –
10 | Cc1cc(C(F)(F)F)nn1CC(=O)N1CCC(c2nc(-c3ncc(-c4ccccc4)o3)cs2)CC1 [Compound 42] | 62% | 96% | 100% | –
11 | Cc1cc(C(F)(F)F)nn1CC(=O)N1CCC(c2nc(-c3nc4ccccc4s3)cs2)CC1 [Compound 43] | 0% | 0% | 43% | –
12 | Cc1cc(C(F)(F)F)nn1CC(=O)N1CCC(c2nc(C3=NOC4(CCc5ccccc54)C3)cs2)CC1 (stereo not drawn) [Compound 44, 1-[4-[4-(2,3-dihydrospiro[1H-indene-1,5′(4′H)-isoxazol]-3′-yl)-2-thiazolyl]-1-piperidinyl]-2-[5-methyl-3-(trifluoromethyl)-1H-pyrazol-1-yl]ethanone] | – | – | – | pest or weed control at 40 ppm ([1]; Plasmopara, 144 h, * tested at 40 ppm, read-out: Percent Disease Control, Test A): 100%; pest or weed control at 40 ppm ([2]; Phytophthora infestans, 96 h, read-out: Percent Disease Control, Test C): 99%; pest or weed control at 40 ppm ([3]; Phytophthora infestans, 144 h, read-out: Percent Disease Control, Test B): 100%
13 | Cc1cc(C(F)(F)F)nn1CC(=O)N1CCC(c2nc(C3=NOC4C(=O)N(C)C(=O)C34)cs2)CC1 (stereo not drawn) [Compound 45] | 30% | 0% | 26% | –
14 | Cc1cc(C(F)(F)F)nn1CC(=O)N1CCC(c2nc(C3=NCC(c4ccccc4)O3)cs2)CC1 (stereo not drawn) [Compound 47] | 0% | 47% | 85% | –
15 | Cc1cc(C(F)(F)F)nn1CC(=O)N1CCC(c2nc(C3=NCCC(c4ccccc4)O3)cs2)CC1 (stereo not drawn) [Compound 48] | 0% | 0% | 85% | –
16 | Cc1cc(C(F)(F)F)nn1CC(=O)N1CCC(c2nc(C3=NC(c4ccccc4)CO3)cs2)CC1 (stereo not drawn) [Compound 49] | 0% | 96% | 100% | –

Row | Compound | Percent Disease Control, Test A [1, 4] | Percent Disease Control, Test C [2, 4] | Percent Disease Control, Test B [3, 4] | also measured
17 | Cc1cc(C(F)(F)F)nn1CC(=O)N1CCC(c2nc(C3=NCC(c4ccccc4)O3)cs2)CC1 (stereo not drawn) [Compound 50] | 0% | 99% | 100% | –
18 | Cc1cc(C(F)(F)F)nn1CC(=O)N1CCC(c2nc(C3=NOC4c5ccccc5CC34)cs2)CC1 (stereo not drawn) [Compound 51] | 99% | 99% | 100% | –
19 | Cc1cc(C(F)(F)F)nn1CC(=O)N1CCC(c2nc(-c3nc4ccccc4o3)cs2)CC1 [Compound 52] | 85% | 67% | 100% | –
20 | Cc1cc(C(F)(F)F)nn1CC(=O)N1CCC(c2nc(C3=NCC(c4ccccc4)CO3)cs2)CC1 (stereo not drawn) [Compound 53] | – | – | – | Percent Disease Control, Test A ([1]; * tested at 40 ppm): 24%; Percent Disease Control, Test C ([2]; * tested at 40 ppm): 26%; Percent Disease Control, Test B ([3]; * tested at 40 ppm): 68%
21 | Cc1cc(C(F)(F)F)nn1CC(=O)N1CCC(c2nc(C3=NC(c4ccccc4)CCO3)cs2)CC1 (stereo not drawn) [Compound 54] | 16% | 0% | 73% | –
22 | COC(=O)C1CC(c2csc(C3CCN(C(=O)Cn4nc(C(F)(F)F)cc4C)CC3)n2)=NO1 (stereo not drawn) [Compound 55] | 17% | 0% | 26% | –
23 | Cc1cc(C(F)(F)F)nn1CC(=O)N1CCC(c2nc(C3=NOC(C(C)(C)C)C3)cs2)CC1 (stereo not drawn) [Compound 56] | 99% | 99% | 100% | –
24 | Cc1cc(C(F)(F)F)nn1CC(=O)N1CCC(c2nc(C3=NOC(CCBr)C3)cs2)CC1 (stereo not drawn) [Compound 57] | 99% | 99% | 100% | –
25 | Cc1cc(C(F)(F)F)nn1CC(=O)N1CCC(c2nc(-c3nc4ccccc4[nH]3)cs2)CC1 [Compound 58] | 0% | 0% | 99% | –
26 | Cc1cc(C(F)(F)F)nn1CC(=O)N1CCC(c2nc(-c3cc(-c4ccccc4F)on3)cs2)CC1 [Compound 59] | – | – | – | Percent Disease Control, Test A ([1]; * tested at 40 ppm): 97%; Percent Disease Control, Test C ([2]; * tested at 40 ppm): 91%; Percent Disease Control, Test B ([3]; * tested at 40 ppm): 100%
27 | Cc1cc(C(F)(F)F)nn1CC(=O)N1CCC(c2nc(-c3cc(-c4ccccc4C(F)(F)F)on3)cs2)CC1 [Compound 60] | 100% | 94% | 95% | –
28 | Cc1cc(C(F)(F)F)nn1CC(=O)N1CCC(c2nc(-c3ccc4ccccc4c3)cs2)CC1 [Compound 61] | 80% | 0% | 77% | –
29 | Cc1cc(C(F)(F)F)nn1CC(=O)N1CCC(c2nc(-c3ccccc3)cs2)CC1 [Compound 62] | 73% | 26% | 73% | –
30 | Cc1cc(C(F)(F)F)nn1CC(=O)N1CCC(c2nc(-c3cc(-c4ccc(F)cc4F)on3)cs2)CC1 [Compound 64] | 90% | 88% | 99% | –
31 | Cc1cc(C(F)(F)F)nn1CC(=O)N1CCC(c2nc(C3CC(=O)N(c4ccccc4)C3)cs2)CC1 (stereo not drawn) [Compound 65] | 46% | 83% | 100% | –
32 | Cc1cc(C(F)(F)F)nn1CC(=O)N1CCC(c2nc(C3=NOC(C#N)C3)cs2)CC1 (stereo not drawn) [Compound 66] | 48% | 73% | 63% | –
